The record followed here is PubChem BioAssay AID1259407 (Chemical Carcinogenesis Research Information System (CCRIS), 2018).

This data set relates to CCRIS mutagenicity, Ames/micronucleus/aberration tests. The data set can be described thus: CCRIS mutagenicity studies.
Setting [1] is: Test System: AMES SALMONELLA TYPHIMURIUM, Strain/Indicator: TA100, Metabolic Activation: NONE, Method: PREINCUBATION
[2] abbreviates: Test System: AMES SALMONELLA TYPHIMURIUM, Strain/Indicator: TA98, Metabolic Activation: NONE, Method: STANDARD PLATE.
Setting [3] is: Test System: AMES SALMONELLA TYPHIMURIUM, Strain/Indicator: TA100, Metabolic Activation: NONE, Method: STANDARD PLATE.

Structures are written as SMILES. Calls of active or inactive are those of the source. The rule behind the calls is not given here.

In the case of `C=CC1CC=CCC1` (stereo unspecified), the mutagenic call is, setting by setting: (Test System: AMES SALMONELLA TYPHIMURIUM, Strain/Indicator: TA98, Metabolic Activation: HAMSTER, LIVER, S-9, AROCLOR 1254 (10%), Method: PREINCUBATION) “inactive; negative”; (Test System: AMES SALMONELLA TYPHIMURIUM, Strain/Indicator: TA98, Metabolic Activation: HAMSTER, LIVER, S-9, AROCLOR 1254, Method: PREINCUBATION) “inactive; negative”; (Test System: AMES SALMONELLA TYPHIMURIUM, Strain/Indicator: TA98, Metabolic Activation: NONE, Method: PREINCUBATION) “inactive; negative”; (Test System: AMES SALMONELLA TYPHIMURIUM, Strain/Indicator: TA98, Metabolic Activation: RAT, LIVER, S-9, AROCLOR 1254 (10%), Method: PREINCUBATION) “inactive; negative”; (Test System: AMES SALMONELLA TYPHIMURIUM, Strain/Indicator: TA98, Metabolic Activation: RAT, LIVER, S-9, AROCLOR 1254, Method: PREINCUBATION) “inactive; negative”; (Test System: AMES SALMONELLA TYPHIMURIUM, Strain/Indicator: TA100, Metabolic Activation: HAMSTER, LIVER, S-9, AROCLOR 1254 (10%), Method: PREINCUBATION) “inactive; negative”. Besides, the mutagenic call was “inactive; negative” (Test System: AMES SALMONELLA TYPHIMURIUM, Strain/Indicator: TA100, Metabolic Activation: HAMSTER, LIVER, S-9, AROCLOR 1254, Method: PREINCUBATION); “inactive; negative” under setting [1]; “inactive; negative” (Test System: AMES SALMONELLA TYPHIMURIUM, Strain/Indicator: TA100, Metabolic Activation: RAT, LIVER, S-9, AROCLOR 1254 (10%), Method: PREINCUBATION); “inactive; negative” (Test System: AMES SALMONELLA TYPHIMURIUM, Strain/Indicator: TA100, Metabolic Activation: RAT, LIVER, S-9, AROCLOR 1254, Method: PREINCUBATION); “inactive; negative” (Test System: AMES SALMONELLA TYPHIMURIUM, Strain/Indicator: TA1535, Metabolic Activation: HAMSTER, LIVER, S-9, AROCLOR 1254 (10%), Method: PREINCUBATION); “inactive; negative” (Test System: AMES SALMONELLA TYPHIMURIUM, Strain/Indicator: TA1535, Metabolic Activation: HAMSTER, LIVER, S-9, AROCLOR 1254, Method: PREINCUBATION). The mutagenic call is “inactive; negative” (Test System: AMES SALMONELLA TYPHIMURIUM, Strain/Indicator: TA1535, Metabolic Activation: NONE, Method: PREINCUBATION); “inactive; negative” (Test System: AMES SALMONELLA TYPHIMURIUM, Strain/Indicator: TA1535, Metabolic Activation: RAT, LIVER, S-9, AROCLOR 1254 (10%), Method: PREINCUBATION); “inactive; negative” (Test System: AMES SALMONELLA TYPHIMURIUM, Strain/Indicator: TA1535, Metabolic Activation: RAT, LIVER, S-9, AROCLOR 1254, Method: PREINCUBATION); “inactive; negative” (Test System: AMES SALMONELLA TYPHIMURIUM, Strain/Indicator: TA1537, Metabolic Activation: HAMSTER, LIVER, S-9, AROCLOR 1254 (10%), Method: PREINCUBATION); “inactive; negative” (Test System: AMES SALMONELLA TYPHIMURIUM, Strain/Indicator: TA1537, Metabolic Activation: HAMSTER, LIVER, S-9, AROCLOR 1254, Method: PREINCUBATION); “inactive; negative” (Test System: AMES SALMONELLA TYPHIMURIUM, Strain/Indicator: TA1537, Metabolic Activation: NONE, Method: PREINCUBATION). Besides, the mutagenic call was “inactive; negative” (Test System: AMES SALMONELLA TYPHIMURIUM, Strain/Indicator: TA1537, Metabolic Activation: RAT, LIVER, S-9, AROCLOR 1254 (10%), Method: PREINCUBATION) and “inactive; negative” (Test System: AMES SALMONELLA TYPHIMURIUM, Strain/Indicator: TA1537, Metabolic Activation: RAT, LIVER, S-9, AROCLOR 1254, Method: PREINCUBATION).
In the case of `CC(=O)O[C@@H]1[C@@H](O)[C@H]2O[C@@H]3C=C(C)C(=O)[C@@H](O)[C@]3(CO)[C@]1(C)[C@]21CO1`, the mutagenic call is “inactive; negative” under setting [2]; “inactive; negative” (Test System: AMES SALMONELLA TYPHIMURIUM, Strain/Indicator: TA98, Metabolic Activation: RAT LIVER S-9, DELOREM 103, Method: STANDARD PLATE); “inactive; negative” under setting [1]; “inactive; negative” under setting [3]; “inactive; negative” (Test System: AMES SALMONELLA TYPHIMURIUM, Strain/Indicator: TA100, Metabolic Activation: RAT LIVER S-9, DELOREM 103, Method: STANDARD PLATE); “inactive; negative” (Test System: AMES SALMONELLA TYPHIMURIUM, Strain/Indicator: TA100, Metabolic Activation: RAT, LIVER, S-9, PHENOBARBITAL, Method: PREINCUBATION).
With `Cc1c(/C=N/OCc2cccc([N+](=O)[O-])c2)c2cc([N+](=O)[O-])ccc2n1Cc1ccccc1`, the mutagenic call by setting is: under setting [2], “active; positive”; (Test System: AMES SALMONELLA TYPHIMURIUM, Strain/Indicator: TA98, Metabolic Activation: RAT, LIVER, S-9, PHENOBARBITAL AND BETA-NAPHTHOFLAVONE, Method: STANDARD PLATE) “active; positive”; under setting [3], “active; positive”; (Test System: AMES SALMONELLA TYPHIMURIUM, Strain/Indicator: TA100, Metabolic Activation: RAT, LIVER, S-9, PHENOBARBITAL AND BETA-NAPHTHOFLAVONE, Method: STANDARD PLATE) “active; positive”.
On to `Cc1cc(O)c2c(c1O)C(=O)c1cc(O)cc(O)c1C2=O`, for which the mutagenic call was “inactive; negative” (Test System: AMES SALMONELLA TYPHIMURIUM, Strain/Indicator: TA1537, Metabolic Activation: NONE, Method: STANDARD PLATE) and “inactive; negative” (Test System: AMES SALMONELLA TYPHIMURIUM, Strain/Indicator: TA1537, Metabolic Activation: RAT, LIVER, S-9, PCB, Method: STANDARD PLATE).
Turning to `O=C1C=CC(=O)N1`, the mutagenic call by setting is: (Test System: AMES SALMONELLA TYPHIMURIUM, Strain/Indicator: TA98, Metabolic Activation: HAMSTER, LIVER, S-9, AROCLOR 1254, Method: STANDARD PLATE) “active; positive”; under setting [2], “active; positive”; (Test System: AMES SALMONELLA TYPHIMURIUM, Strain/Indicator: TA98, Metabolic Activation: RAT, LIVER, S-9, AROCLOR 1254, Method: STANDARD PLATE) “active; positive”; (Test System: AMES SALMONELLA TYPHIMURIUM, Strain/Indicator: TA100, Metabolic Activation: HAMSTER, LIVER, S-9, AROCLOR 1254, Method: STANDARD PLATE) “inactive; negative”; under setting [3], “inactive; negative”; (Test System: AMES SALMONELLA TYPHIMURIUM, Strain/Indicator: TA100, Metabolic Activation: RAT, LIVER, S-9, AROCLOR 1254, Method: STANDARD PLATE) “active; positive”. Moreover, the mutagenic call reads like this: (Test System: MOUSE LYMPHOMA, Strain/Indicator: L5178Y (TK+/TK-), Metabolic Activation: NONE, Method: SUSPENSION/PLATE) “active; positive. reevaluation of results: inconclusive”; (Test System: MOUSE LYMPHOMA, Strain/Indicator: L5178Y (TK+/TK-), Metabolic Activation: RAT, LIVER, S-9, AROCLOR 1254, Method: SUSPENSION/PLATE) “active; positive. reevaluation of results: positive”.
As for `Cc1cccc2c1ccc1ccccc12`, the mutagenic call is “inactive; negative” (Test System: AMES SALMONELLA TYPHIMURIUM, Strain/Indicator: TA97, Metabolic Activation: NONE, Method: STANDARD PLATE); “active; positive” (Test System: AMES SALMONELLA TYPHIMURIUM, Strain/Indicator: TA97, Metabolic Activation: RAT, LIVER, S-9, PCB, Method: STANDARD PLATE); “inactive; negative” under setting [2]; “active; positive” (Test System: AMES SALMONELLA TYPHIMURIUM, Strain/Indicator: TA98, Metabolic Activation: RAT, LIVER, S-9, PCB, Method: STANDARD PLATE); “inactive; negative” under setting [3]; “active; positive” (Test System: AMES SALMONELLA TYPHIMURIUM, Strain/Indicator: TA100, Metabolic Activation: RAT, LIVER, S-9, PCB, Method: STANDARD PLATE).
